Results: patent US8906865B2, “Treatment of inflammation and/or endotoxic shock” (ISIS Innovation Limited, priority 2007, dated 2014)

Assays:
[1] = system: Murine peritoneal macrophages (PMΦ); experiment: Macrophage activation assay: LPS/IFNγ-induced inflammatory cytokine expression (ELISA, Luminex); format: cell-based, mouse; settings: for Percentage inhibition of LPS/IFNγ-induced inflammatory cytokine expression: RANTES / Percentage inhibition of LPS/IFNγ-induced inflammatory cytokine expression: TNFα / Percentage inhibition of LPS/IFNγ-induced inflammatory cytokine expression: IL-1β / Percentage inhibition of LPS/IFNγ-induced inflammatory cytokine expression: IL-6 / Percentage inhibition of LPS/IFNγ-induced inflammatory cytokine expression: IL-12 p40: PMΦ; for Percentage inhibition of LPS/IFNγ-induced inflammatory cytokine expression: RANTES / Percentage inhibition of LPS/IFNγ-induced inflammatory cytokine expression: TNFα: pre-treatment 1 h (0.1 pM-100 nM), then LPS 100 ng/ml + IFNγ 20 ng/ml 15 h, optimal dose (1 pM Chemerin and C15, 100 pM C13 and C19); for Anti-inflammatory activity in the MΦ activation assay: peptides 0.1 pM-100 nM; for Suppression of LPS/IFNγ-induced RANTES secretion (FIG. 2B) / Suppression of LPS/IFNγ-induced TNFα expression (FIG. 2B): C13m 100 pM, C15m 1 pM, C17m 1 pM, pre-treatment 1 h then LPS/IFNγ 15 h; for Percentage inhibition of LPS/IFNγ-induced inflammatory cytokine expression: IL-1β / Percentage inhibition of LPS/IFNγ-induced inflammatory cytokine expression: IL-6 / Percentage inhibition of LPS/IFNγ-induced inflammatory cytokine expression: IL-12 p40: pre-treatment 1 h, then LPS/IFNγ 15 h, 1 pM Chemerin and C15; for Optimal dose (maximal response) for suppression of LPS/IFNγ-induced cytokine expression: macrophage activation assay
Description: Murine peritoneal macrophages (PMθ, also referred to as PMΦ herein) were cultured under various conditions: Untreated; LPS (100 ng/ml) and IFNγ (20 ng/ml) for 15 h; Chemerin (1 pM) pre-treatment for 1 h then LPS/IFNγ for 15 h; Leupeptin (protease inhibitor; 15 mg/ml) and Chemerin (1 pM) for 1 h then LPS/IFNγ for 15 h; or Dexamethasone (positive control; 1 μM pre-treatment for 1 h then LPS/IFNγ for 15 h.
Murine PMθ were cultured under various conditions: Untreated, LPS (100 ng/ml) and IFNγ (20 ng/ml) for 15 h; Chemerin peptides (at a concentration of 1 pM-100 nM) pre-treatment for 1 h then LPS/IFNγ for 15 h. […] Experiments were performed with triplicate determinations for each treatment. Representative data from five independent experiments employing cells from different groups of C57B16/J mice are shown. p<0.01 **; p<0.001 *** relative to LPS/IFNγ treated samples.
With reference to Table 1, anti-inflammatory activity of chemerin-derived peptides—Murine PMΦ were cultured as described for FIG. 1B and were challenged with LPS (100 ng/ml) and IFNγ (20 ng/ml) for 15 h with/without pre-treatment with peptides (0.1 pM-100 nM) for 1 h. […] Peptide sequences are: C11 (P144-A154; […]), C13 (P144-S156; […]), C15 (A140-A154; […]), C19 (A138-S156; […]; Seq ID: No. 37), N19 (E23-K41; […] Seq ID No: 44) and M20 (K86-K105; […] Seq ID No. 45). Control peptides: scrambled C15 (C15-S; […]) and mutant C15 (C15-M; […]; F148A & F153A). Data represent mean percentage inhibition of cytokine production by classically activated macrophages from 4-8 independent experiments as determined by ELISA and Luminex assay.
1 ml 2% BioGEL polyacrylamide beads in sterile Phosphate-Buffered Saline (PBS) were injected intraperitoneally (ip) into C57B1/6J mice. Four days after ip BioGEL administration, mice were sacrificed by the CO, method according to Home Office guidelines. Peritoneal cavities were flushed with 10 ml sterile PBS-2 mM EDTA to harvest BioGEL-evoked/elicited cellular infiltrate. Suspensions of harvested cells were centrifuged at 1000×g for 5 mins at 4° C. The supernatants were discarded and cell pellets were resuspended in 6 mls OptiMEM medium supplemented with 2 mM Glutamine, 50 units/ml Penicillin and 50 μg/ml Streptomycin. Macrophages were quantified following incubation on ice for 5-10 mins with Turk's solution using a haemocytometer. Cell suspensions (2 mls; 1.5×10^6/well) were plated in six-well tissue culture plates (35 mm diameter: Costar, UK) and allowed to adhere for 2 hours at 37° C. in a humidified atmosphere containing 5% CO2, to isolate macrophage populations by adherence. This gave greater than 95% purity assessed by cytospinning, staining of cells with Methylene Blue and Eosin and counting based on cellular morphology. Nonadherent cells (mainly granulocytes) were discarded and wells were washed three times with sterile PBS to remove loosely adherent or dead cells. […] To determine PTX sensitivity and dependency upon proteolysis, cells were pre-incubated with PTX (200 ng/ml) or Leupeptin (15 μg/ml). Additional cells were treated with peptides alone. Supernatants were harvested and stored at −20° C. until use in Enzyme-Linked Immunosorbance Assays (ELISAs) and Luminex assays. Cells were lysed to allow extraction of total RNA by the TRIZOL method. Lysates were stored at −80° C. until RNA extraction following manufacturer's guidelines (Qiagen, RNeasy Mini Prep Kit).
RANTES, Tumour necrosis factor (TNFα) and CCL9 concentrations in cell supernatants were assessed by ELISA. IL-12 p40, IL-10, IL-1β, TNFα, MCP-1 (Monocyte chemoattractant protein-1) and IL-6 levels were determined by Luminex multiplex bead assay (Bio-rad 6 plex assay). Lower limits of detection for ELISAs were 0.1-0.5 ng/ml and 10-50 pg/ml for Luminex assays.

[2] = system: PMΦ (peritoneal macrophages); experiment: Secondary chemotaxis assay towards conditioned media from treated macrophages; format: cell-based, mouse; settings: relative to LPS/IFNγ conditioned medium
Excerpt: Given the well established role of MΦ-derived chemoattractants in the recruitment of immune cells during inflammation (Glabinski, A. R., et al., (1998). Neuroimmunomodulation 5:166-171; Huang, D. J. et al., (2001). J. Exp. Med. 193:713-726), conditioned media was used from untreated MΦ and MΦ treated with chemerin+LPS/IFNγ, C15+LPS/IFNγ and LPS/IFNγ alone in chemotaxis assays to assess how suppression of MΦ activation by chemerin and the synthetic C-terminal peptide, C15 might affect further MΦ recruitment (See FIG. 4H).
Conditioned media from macrophages treated with C140+LPS/IFNγ, C15m+LPS/IFNγ, C17m+LPS/IFNγ and LPS/IFNγ alone were used in secondary chemotaxis assays to assess the potential pathophysiological repercussions associated with suppression of macrophage activation by C140 and its C-terminal peptides.
Cells (0.5×10^6) were allowed to migrate towards chemoattractant (Chemerin peptides) or conditioned media in the bottom well of a modified Boyden chamber over 4 h. Serum free media (SFM) was used as a negative control. Filters were fixed in 4% formalin, then nuclei were stained with DAPI and visualised. Bar graphs indicate mean Migration Index (Chemoattractant % threshold area/SFM % threshold area)±SEM for each treatment group. Each bar represents at least triplicate wells and 6 pictures taken per treatment. p<0.001 ***; p<0.01 ** significance is relative to LPS/IFNγ conditioned media unless otherwise stated. AB refers to anti-murine Chemerin antibody.
Cell migration was assessed by use of transwell membranes (ChemoTX, 6-mm diameter, 8-μm pore size). Briefly, BioGEL-elicited cells were harvested and placed on transwell membranes (250 000 cells/membrane in RPMI supplemented with 25 mM Hepes and 0.1% bovine serum albumin. Cells were allowed to migrate toward Chemerin peptides (1 pM-100 nM) for 4 h. Signal transduction via G protein-coupled receptors was blocked by preincubating cells with pertussis toxin (PTX, 200 ng/ml, Sigma-Aldrich) for 30 mins before placing cells on transwell membranes. Migrated cells on the underside of membranes were fixed (3% formaldehyde) and stained with DAPI. Migration was quantified as total pixel count of DAPI stained nuclei under the confocal microscope (2 photos/membrane and a minimum of 3 replicate wells per treatment). Images were analyzed using Metamorph Offline software to determine percentage threshold areas (TA) occupied by migrated cells. Migration indices were obtained by dividing treatment TA by serum-free media TA. For secondary chemotaxis assays ChemoTx 3-mm diameter, 8-μm pore membranes were used with 50 000 cells/membrane.

| Molecule | Percentage inhibition of LPS/IFNγ-induced inflammatory cytokine expression: RANTES [1] [%] | Percentage inhibition of LPS/IFNγ-induced inflammatory cytokine expression: TNFα [1] [%] | Anti-inflammatory activity in the MΦ activation assay [1] | Suppression of LPS/IFNγ-induced RANTES secretion (FIG. 2B) [1] [%] | Suppression of LPS/IFNγ-induced TNFα expression (FIG. 2B) [1] [%] | Percentage inhibition of LPS/IFNγ-induced inflammatory cytokine expression: IL-1β [1] [%] | Percentage inhibition of LPS/IFNγ-induced inflammatory cytokine expression: IL-6 [1] [%] | Percentage inhibition of LPS/IFNγ-induced inflammatory cytokine expression: IL-12 p40 [1] [%] | Optimal dose (maximal response) for suppression of LPS/IFNγ-induced cytokine expression [1] [pM] | Macrophage chemotaxis towards conditioned media from treated + LPS/IFNγ macrophages (FIG. 5) [2] | Reduction of MΦ chemotaxis towards conditioned media from treated + LPS/IFNγ macrophages (FIG. 4H) [2] [%] | Pertussis toxin sensitivity of the effects on macrophages (FIG. 1D) ([1]; chemerin 0.1-1 pM ± PTX 200 ng/ml) |
| --- | --- | --- | --- | --- | --- | --- | --- | --- | --- | --- | --- | --- |
| AGEDPHGYALPGQAA (Mutant C15) [C15-M, control peptide, mutant C15 (F148A & F153A), reference compound] | 0 | 0 | devoid of anti-inflammatory activity | – | – | – | – | – | – | – | – | – |
| AGEDPHGYFLPGQFA (listed as Mus sp.) [C15] | 47 | 61 | – | 41 | 56 | 54 | 43 | 47 | 1 | reduced chemotaxis | 55 | – |
| AGEDPHGYFLPGQFAFS (listed as Mus sp.) [C17m] | – | – | – | 49 | 66 | – | – | – | – | reduced chemotaxis | – | – |
| GLFHDQAGPPAGYEF (Scrambled C15) [C15-S, control peptide, scrambled C15, reference compound] | 0 | 0 | devoid of anti-inflammatory activity | – | – | – | – | – | – | – | – | – |
| Chemerin: 140 amino acid mouse Chemerin protein of Sequence ID no: 34 (protein, listed as Mus sp.) TVGTEPELSETQRRSLQVALEEFHKHPPVQLAFQEIGVDRAEEVLFSAGTFVRLEFKLQQTNCPKKDWKKPECTIKPNGRRRKCLACIKMDPKGKILGRIVHCPILKQGPQDPQELQCIKIAQAGEDPHGYFLPGQFAFS | 40 | 70 | – | – | – | 60 | 42 | 54 | 1 | reduced chemotaxis | 49 | pertussis toxin-sensitive |
